Test [1] deals with Sugen Hypoxia model of PAH. The experiment in a line: Sugen Hypoxia rat model of PAH (semaxanib/hypoxia). Format: in vivo. To be noted: Sugen Hypoxia rats; for decrease of right heart hypertrophy / reduction of mean pulmonary arterial pressure: day 28, compared to vehicle treated animals; for smooth muscle hypertrophy of pulmonary arterioles, average histopathological score: 0 (normal), 1 (minimal), 2 (mild), 3 (moderate), 4 (marked); for pulmonary arterioles completely muscularized / pulmonary arterioles non-muscularized / pulmonary arterioles partially muscularized: αSMA/elastin staining, 100 arterioles per animal. As to the method:
The effects of an ActRIIA-mFc fusion protein (ActRIIA-mFc homodimer as described in Example 1 and sildenafil (a phosphodiesterase-5 inhibitor approved for the treatment of PAH) were further examined the Sugen Hypoxia model of PAH. In this model, rats receive daily doses of semaxanib and are placed in a low oxygen environment (approximately 13% oxygen) to induce PAH 24 hours prior to start of therapy.
Rats were separated into different treatment groups (10 mice per group): 1) treatment with semaxanib (200 mg/kg administered s.c. as a single dose daily)/hypoxia and Tris buffered saline (administered i.p. as 1 ml/kg, every three days) (vehicle treatment group), 2) treatment with an ActRIIA-mFc polypeptide (10 mg/kg administered i.p. every three days) and semaxanib (200 mg/kg administered s.c. as a single dose daily)/hypoxia, 3) treatment with sildenafil (30 mg/kg administered orally twice daily) and semaxanib (200 mg/kg administered s.c. as a single dose daily)/hypoxia, and 4) control rats (Tris buffered saline administered i.p. as 1 ml/kg, every three days). Rats were treated for 28 days. Body weights were recorded prior to first dose on Day 1 and then weekly throughout the study.
(§1) On day 28, rats were anesthetized by an intraperitoneal injection of ketamine/xylazine (80/10 mg/kg). An incision was made in the neck, and a jugular vein was isolated and ligated anteriorly. A fluid-filled pressure catheter was introduced into the right jugular vein to measure pulmonary artery pressure (PAP). Another incision was made in the inguinal region, and femoral artery was isolated and ligated anteriorly. A Millar pressure catheter was introduced into a femoral artery to measure systolic arterial pressure, diastolic pressure, and heart rate. Mean arterial pressure and right PAP were monitored using the Notocord HEM (Croissy sur Seine, Frnace) v3.5 data capture system for approximately 5-10 minutes until stable measurements were obtained. During the measurements, rats were maintained at approximately 37° C. on a heating pad and body temperature was monitored throughout the procedure with a rectal temperature probe. At the conclusion of the procedure, rats were euthanized, and the hearts and lungs were removed. The entire heart was weighed. Next, the atria were removed and the left ventricle with septum (LV+S) was separated from the right ventricle (RV). The ventricles were weighed separately. Hypertrophy was assessed, in part, by calculating RV/LV+S. The lungs were also weighed.
(§2) Similar trends were observed on vessel muscularity based on histopathologic scoring. After staining tissue samples to detect αSMA/elastin, 100 pulmonary arterioles, between 10 m and 50 m in size, per animal were categorized as non-muscularized, partially muscularized, or completely muscularized. Pulmonary arterioles from vehicle treated rats were determined to be 72.5% completely muscularized, 27.4% partially muscularized, and 0.1% non-muscularized. […] Histopathological scoring of smooth muscle hypertrophy of pulmonary arterioles were also recorded as follows: 0 (normal), 1 (minimal), 2 (mild), 3 (moderate), or 4 (marked).

Test [2] relates to rat model of pulmonary arterial hypertension (PAH), monocrotaline-induced. The experiment in a line: Monocrotaline (MCT) rat model of pulmonary arterial hypertension. Type of test: in vivo, Sprague Dawley rats. The note with it: MCT rats; for improvement in body weight: 28 days; for improvement in body weight / decrease of right heart hypertrophy / decrease of lung weight / reduction of elevated PAP: compared to monocrotaline treated rats (vehicle); for decrease of right heart hypertrophy / decrease of lung weight / reduction of elevated PAP: day 28; for decrease of right heart hypertrophy: RV/LV+S; for smooth muscle hypertrophy of pulmonary arterioles, average histopathological score: 0 (normal), 1 (minimal), 2 (mild), 3 (moderate), 4 (marked); for pulmonary arterioles completely muscularized / pulmonary arterioles non-muscularized / pulmonary arterioles partially muscularized: αSMA/elastin staining, 100 arterioles per animal. The procedure:
The effects of an ActRIIA-mFc fusion protein (ActRIIA-mFc homodimer as described in Example 1), an ALK4-Fc-ActRIIB-Fc heterodimer (as described in Examples 12 and 13), and sildenafil (a phosphodiesterase-5 inhibitor approved for the treatment of PAH) were examined in a rat model of pulmonary arterial hypertension (PAH). In this model, Sprague Dawley rats received a […] injection of monocrotaline (MCT) to induce PAH 24 hours prior to start of therapy.
Rats were separated into different treatment groups (10 mice per group): 1) treatment with MCT (60 mg/kg administered i.p. as a single dose at day 1 of study) and Tris buffered saline (i.p. as 1 ml/kg, every three days) (vehicle treatment group), 2) treatment with an ActRIIA-mFc polypeptide (10 mg/kg administered i.p. every three days) and MCT (60 mg/kg administered i.p. as a single dose at day 1 of study), 3) treatment with an ALK4-Fc:ActRIIB-Fc heterodimer (10 mg/kg administered i.p. every three days) and MCT (60 mg/kg administered i.p. as a single dose at day 1 of study), 4) treatment with sildenafil (30 mg/kg administered orally twice daily) and MCT (60 mg/kg administered i.p. as a single dose at day 1 of study), and 5) control rats (Tris buffered saline administered i.p. as 1 ml/kg, every three days). Rats were treated for 28 days. Body weights were recorded prior to first dose on Day 1 and then weekly throughout the study.
as §1
as §2, with “10 μm” for “10 m”, “be 62.3%” for “be 72.5%”, “muscularized, 36.4%” for “muscularized, 27.4%”, “and 1.4%” for “and 0.1%”

The next test has as its target T1, activin B (Homo sapiens, UniProt P09529).
T1 sequence (P09529 293-407): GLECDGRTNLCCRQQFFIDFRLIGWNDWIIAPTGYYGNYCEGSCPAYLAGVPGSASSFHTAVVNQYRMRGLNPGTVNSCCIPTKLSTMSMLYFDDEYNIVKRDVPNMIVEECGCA
The experiment in a line: Biacore ligand affinity of ActRIIB-hFc forms, steady-state affinity fit. Format: binding. As to the method:
(§3) Affinities of several ligands for ActRIIB(25-131)-hFc and its full-length counterpart ActRIIB(20-134)-hFc were evaluated in vitro with a Biacore™ instrument, and the results are summarized in Table 8 below. Kd values were obtained by steady-state affinity fit due to very rapid association and dissociation of the complex, which prevented accurate determination of kon and koff. ActRIIB(25-131)-hFc bound, for example, activin A, activin B, and GDF11 with high affinity.
(§4) The affinity of ActRIIB variants and other ActRIIB-hFc proteins for several ligands was evaluated in vitro with a Biacore™ instrument. Kd values were obtained by steady-state affinity fit due to the very rapid association and dissociation of the complex, which prevented accurate determination of kon and koff.

Another test addresses T2, GDF11 (Homo sapiens, UniProt O95390).
T2 sequence (O95390 299-407): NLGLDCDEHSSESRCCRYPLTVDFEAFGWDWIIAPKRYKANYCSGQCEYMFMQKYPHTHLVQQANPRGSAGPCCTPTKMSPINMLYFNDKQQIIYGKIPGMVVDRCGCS
The description is as above. Type of test: binding. The procedure: as §3, §4

For another test, the target named is T3, activin A (Homo sapiens, UniProt P08476).
T3 sequence (P08476 311-426): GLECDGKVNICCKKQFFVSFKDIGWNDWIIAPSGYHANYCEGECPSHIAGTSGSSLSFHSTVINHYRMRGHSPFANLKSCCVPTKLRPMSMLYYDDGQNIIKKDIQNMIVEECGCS
The test is described as above. Format: binding. The procedure:
as §3, §4

In test [3] the test system is pGL3(CAGA)12 reporter gene expression in A-204 cells. The experiment in a line: A-204 reporter gene assay, stimulation by factors without inhibitors. The note with it: in the absence of any inhibitors. Format: cell-based, human. An excerpt: An A-204 reporter gene assay was used to evaluate the effects of ActRIIB-Fc proteins and ActRIIB variant Fc fusion polypeptides on signaling by GDF-11 and activin A. Cell line: human rhabdomyosarcoma (derived from muscle). Reporter vector: pGL3(CAGA)12 (described in Dennler et al, 1998, EMBO 17: 3091-3100). The CAGA12 motif is present in TGF-beta responsive genes (e.g., PAI-1 gene), so this vector is of general use for factors signaling through SMADs.
Day 1: Split A-204 cells into 48-well plate.
Day 2: A-204 cells transfected with 10 ug pGL3(CAGA)12 or pGL3(CAGA)12(10 ug)+pRLCMV (1 pg) and Fugene.
Day 3: Add factors (diluted into medium+0.1% BSA). Inhibitors need to be preincubated with factors for 1 hr before adding to cells. Six hrs later, cells were rinsed with PBS and lysed.
This is followed by a luciferase assay.

With `CCCc1nn(C)c2c(=O)[nH]c(-c3cc(S(=O)(=O)N4CCN(C)CC4)ccc3OCC)nc12` [sildenafil, reference compound], in test [1], the “decrease of right heart hypertrophy” value was found to be 10%; the “reduction of mean pulmonary arterial pressure” value is listed as 22.4%; the “smooth muscle hypertrophy of pulmonary arterioles, average histopathological score” value is 3; the “pulmonary arterioles completely muscularized” value is 67.4%. In test [1], the pulmonary arterioles non-muscularized came to 1.0% and the “pulmonary arterioles partially muscularized” value is recorded as 31.6%. Moreover, in test [2], the “improvement in body weight” value is “did not have any improvement in body weight”, the “decrease of right heart hypertrophy” value is recorded as 18.5%, the “decrease of lung weight” value was 10% and the “reduction of elevated PAP” value stood at 30%. In test [2], the “smooth muscle hypertrophy of pulmonary arterioles, average histopathological score” value stood at 3; the “pulmonary arterioles completely muscularized” value is 57.9%; the pulmonary arterioles non-muscularized stood at 0.9%; the “pulmonary arterioles partially muscularized” value came to 41.6%.
With “ActRIIA-mFc: extracellular domain of human ActRIIa fused to a mouse Fc domain with a minimal linker; homodimer”, in test [1], the “decrease of right heart hypertrophy” value was 53.5%; the “reduction of mean pulmonary arterial pressure” value is given as 51.3%; the “smooth muscle hypertrophy of pulmonary arterioles, average histopathological score” value came to 1.4; the “pulmonary arterioles completely muscularized” value came to 29.3%. Also, in test [1], the pulmonary arterioles non-muscularized is 1.4% and the “pulmonary arterioles partially muscularized” value came out at 69.3%. For the same compound, in test [2], the “improvement in body weight” value is given as “did not show improvement in body weight”, the “decrease of right heart hypertrophy” value was 47.1%, the “decrease of lung weight” value stood at 18.4% and the “reduction of elevated PAP” value was 68%. Moreover, in test [2], the “smooth muscle hypertrophy of pulmonary arterioles, average histopathological score” value stood at 1.6; the “pulmonary arterioles completely muscularized” value is 25.8%; the pulmonary arterioles non-muscularized turned out to be 7.3%; the “pulmonary arterioles partially muscularized” value stood at 66.9%.
As to “ActRIIB(25-131)-hFc: human ActRIIB extracellular domain with N- and C-terminal truncations (residues 25-131) fused to human Fc via three glycines”, the “activin B binding” value with activin B (Biacore) is reported as “high affinity”. The Kd with activin B (Table 12, Kd by steady-state affinity fit, read-out: Activin B (Kd e−11)) was 0.012 nM; in the test with GDF11 (Table 12, Kd by steady-state affinity fit, read-out: GDF11 (Kd e−11)) it was 0.031 nM; with activin A (Table 12, Kd by steady-state affinity fit, read-out: Activin A (Kd e−11)) it was 0.018 nM. Besides, in the test with GDF11 (Biacore), the “GDF11 binding” value is reported as “high affinity”. Further, the “activin A binding” value with activin A (Biacore) is listed as “high affinity”.
Turning to “GDF-11: TGF-beta superfamily ligand added as factor in the A-204 reporter gene assay”, in test [3], the ED50 was approximately 1.5 ng/mL and the “stimulation of reporter gene expression” value was found to be 16 fold.
For “activin A: TGF-beta superfamily ligand added as factor in the A-204 reporter gene assay” the same measures were approximately 2 ng/mL and 10 fold.

(Values after patent publication US20230129812A1, “COMPOSITIONS AND METHODS FOR TREATING PULMONARY HYPERTENSION” (Acceleron Pharma Inc., priority 2020, published 2023).)
